From publication PMC7181660, “A novel specific PERK activator reduces toxicity and extends survival in Huntington's disease models” (Scientific Reports, 2020)
Like-named read-outs stand apart in the source and are kept apart here.

What was measured:
Experiment in all cases: biochemical
Assay type in all cases: biochemical
panel of 391 kinases [1] = molecular target: panel of 391 kinases (Homo sapiens, UniProt O14920); conditions: IKKb/IKBKB, MK-28 1 µM, ATP 1 µM
panel of 391 kinases [2] = molecular target: panel of 391 kinases (Homo sapiens, UniProt O96013); conditions: PAK4, MK-28 1 µM, ATP 1 µM
panel of 391 kinases [3] = molecular target: panel of 391 kinases (Homo sapiens, UniProt P07949); conditions: RET, MK-28 1 µM, ATP 1 µM
panel of 391 kinases [4] = molecular target: panel of 391 kinases (Homo sapiens, UniProt P17612); conditions: PKA, MK-28 1 µM, ATP 1 µM
panel of 391 kinases [5] = molecular target: panel of 391 kinases (Homo sapiens, UniProt P43405); conditions: SYK, MK-28 1 µM, ATP 1 µM
panel of 391 kinases [6] = molecular target: panel of 391 kinases (Homo sapiens, UniProt P45985); conditions: MKK4, MK-28 1 µM, ATP 1 µM
panel of 391 kinases [7] = molecular target: panel of 391 kinases (Homo sapiens, UniProt Q12852); conditions: DLK/MAP3K12, MK-28 1 µM, ATP 1 µM
panel of 391 kinases [8] = molecular target: panel of 391 kinases (Homo sapiens, UniProt Q86UX6); conditions: STK32C/YANK3, MK-28 1 µM, ATP 1 µM
panel of 391 kinases [9] = molecular target: panel of 391 kinases (Homo sapiens, UniProt Q86YV6); conditions: MYLK4, MK-28 1 µM, ATP 1 µM
panel of 391 kinases [10] = molecular target: panel of 391 kinases (Homo sapiens, UniProt Q99683); conditions: ASK1/MAP3K5, MK-28 1 µM, ATP 1 µM
panel of 391 kinases [11] = molecular target: panel of 391 kinases (Homo sapiens, UniProt Q9BWU1); conditions: CDK19/cyclin C, MK-28 1 µM, ATP 1 µM
panel of 391 kinases [12] = molecular target: panel of 391 kinases (Homo sapiens, UniProt Q9H2K8); conditions: TAOK3/JIK, MK-28 1 µM, ATP 1 µM
panel of 391 kinases [13] = molecular target: panel of 391 kinases (Homo sapiens, UniProt Q9H422); conditions: HIPK3, MK-28 1 µM, ATP 1 µM
panel of 391 kinases [14] = molecular target: panel of 391 kinases (Homo sapiens, UniProt Q9NYY3); conditions: PLK2, MK-28 1 µM, ATP 1 µM
panel of 391 kinases [15] = molecular target: T1, panel of 391 kinases (Homo sapiens, UniProt Q9NZJ5)
T1 sequence (Q9NZJ5 30-1116): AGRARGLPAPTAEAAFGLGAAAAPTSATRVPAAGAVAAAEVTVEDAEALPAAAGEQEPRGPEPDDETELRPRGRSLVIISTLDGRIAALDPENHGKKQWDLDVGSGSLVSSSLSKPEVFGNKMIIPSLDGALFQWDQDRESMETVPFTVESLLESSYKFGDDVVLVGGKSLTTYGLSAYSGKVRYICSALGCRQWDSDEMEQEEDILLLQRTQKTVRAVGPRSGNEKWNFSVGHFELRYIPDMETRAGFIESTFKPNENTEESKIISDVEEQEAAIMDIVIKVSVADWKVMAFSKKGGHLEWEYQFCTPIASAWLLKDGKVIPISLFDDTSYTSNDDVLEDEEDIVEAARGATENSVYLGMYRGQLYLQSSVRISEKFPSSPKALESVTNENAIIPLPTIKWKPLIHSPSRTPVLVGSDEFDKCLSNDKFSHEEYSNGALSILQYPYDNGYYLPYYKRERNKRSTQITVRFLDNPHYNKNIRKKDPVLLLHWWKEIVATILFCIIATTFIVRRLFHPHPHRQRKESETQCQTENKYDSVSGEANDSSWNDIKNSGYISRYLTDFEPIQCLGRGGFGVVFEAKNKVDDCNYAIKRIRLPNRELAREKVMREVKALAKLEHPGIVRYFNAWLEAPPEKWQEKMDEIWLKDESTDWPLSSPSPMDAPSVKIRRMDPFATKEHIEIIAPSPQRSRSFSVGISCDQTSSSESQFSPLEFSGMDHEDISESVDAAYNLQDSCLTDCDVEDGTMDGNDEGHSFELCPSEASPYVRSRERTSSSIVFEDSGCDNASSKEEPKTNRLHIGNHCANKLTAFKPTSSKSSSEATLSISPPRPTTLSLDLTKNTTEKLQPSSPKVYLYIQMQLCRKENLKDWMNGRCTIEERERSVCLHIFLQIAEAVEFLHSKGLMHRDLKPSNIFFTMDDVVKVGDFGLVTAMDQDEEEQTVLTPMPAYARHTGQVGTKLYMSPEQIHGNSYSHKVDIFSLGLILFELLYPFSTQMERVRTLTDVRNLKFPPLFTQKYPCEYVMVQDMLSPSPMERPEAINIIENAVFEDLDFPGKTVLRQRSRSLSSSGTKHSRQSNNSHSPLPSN

panel of 391 kinases [16] = molecular target: panel of 391 kinases (Homo sapiens, UniProt Q9UM73); conditions: ALK, MK-28 1 µM, ATP 1 µM
panel of 391 kinases [17] = molecular target: panel of 391 kinases (Homo sapiens, UniProt Q9Y5S2); conditions: MRCKb/CDC42BPB, MK-28 1 µM, ATP 1 µM
[18] = read-out: % Enzyme Activity (relative to DMSO controls)

CN(/N=C\c1ccc(O)c(O)c1)c1nc(-c2ccccc2)cc(-c2ccccc2)n1 [MK-28]
% Enzyme Activity (relative to DMSO controls) (panel of 391 kinases [1]): 96.13%
remaining activity at 1 µM (panel of 391 kinases [1]; [18]): 96.9%
% Enzyme Activity (relative to DMSO controls) (panel of 391 kinases [2]): 97.48%
remaining activity at 1 µM (panel of 391 kinases [2]; [18]): 97.6%
% Enzyme Activity (relative to DMSO controls) (panel of 391 kinases [3]): 98.07%
remaining activity at 1 µM (panel of 391 kinases [3]; [18]): 99.2%
% Enzyme Activity (relative to DMSO controls) (panel of 391 kinases [4]): 91.97%
remaining activity at 1 µM (panel of 391 kinases [4]; [18]): 93%
% Enzyme Activity (relative to DMSO controls) (panel of 391 kinases [5]): 91.75%
remaining activity at 1 µM (panel of 391 kinases [5]; [18]): 93%
% Enzyme Activity (relative to DMSO controls) (panel of 391 kinases [6]): 102.88%
remaining activity at 1 µM (panel of 391 kinases [6]; [18]): 103%
% Enzyme Activity (relative to DMSO controls) (panel of 391 kinases [7]): 122.20%
remaining activity at 1 µM (panel of 391 kinases [7]; [18]): 124%
% Enzyme Activity (relative to DMSO controls) (panel of 391 kinases [8]): 104.62%
remaining activity at 1 µM (panel of 391 kinases [8]; [18]): 112%
% Enzyme Activity (relative to DMSO controls) (panel of 391 kinases [9]): 92.82%
remaining activity at 1 µM (panel of 391 kinases [9]; [18]): 97.6%
% Enzyme Activity (relative to DMSO controls) (panel of 391 kinases [10]): 97.76%
remaining activity at 1 µM (panel of 391 kinases [10]; [18]): 100%
% Enzyme Activity (relative to DMSO controls) (panel of 391 kinases [11]): 105.26%
remaining activity at 1 µM (panel of 391 kinases [11]; [18]): 108%
% Enzyme Activity (relative to DMSO controls) (panel of 391 kinases [12]): 100.19%
remaining activity at 1 µM (panel of 391 kinases [12]; [18]): 103%
% Enzyme Activity (relative to DMSO controls) (panel of 391 kinases [13]): 104.43%
remaining activity at 1 µM (panel of 391 kinases [13]; [18]): 105%
% Enzyme Activity (relative to DMSO controls) (panel of 391 kinases [14]): 97.72%
remaining activity at 1 µM (panel of 391 kinases [14]; [18]): 98.5%
remaining activity at 1 µM (panel of 391 kinases [15]; 1 μM, duplicate, 391-kinase panel, read-out: PERK (EIF2AK3) activity, % of the control): 181%
% Enzyme Activity (relative to DMSO controls) (panel of 391 kinases [15]; kinase EIF2AK3, compound at 1 µM, single dose in duplicates, 1 µM ATP): 175.07%
remaining activity at 1 µM (panel of 391 kinases [15]; kinase EIF2AK3, compound at 1 µM, single dose in duplicates, 1 µM ATP, read-out: % Enzyme Activity (relative to DMSO controls)): 188%
% Enzyme Activity (relative to DMSO controls) (panel of 391 kinases [16]): 82.73%
remaining activity at 1 µM (panel of 391 kinases [16]; [18]): 82.8%
% Enzyme Activity (relative to DMSO controls) (panel of 391 kinases [17]): 100.39%
remaining activity at 1 µM (panel of 391 kinases [17]; [18]): 101%
